Experiment [1] concerns HCT-116. The experiment can be described thus: Antiproliferative activity against human HCT116 cells incubated for 48 hrs by SRB assay. Format: functional. Particulars: HCT-116, 48 h. Background: Sulforhodamine B stains cellular protein and so reports cell mass.
Experiment [2] relates to MDA-MB-231. In words: Antiproliferative activity against human MDA-MB-231 cells incubated for 48 hrs by SRB assay. Format: functional. Particulars: MDA-MB-231, 48 h.

A word on the GI50: it is the concentration giving 50% growth inhibition. As to `Nc1ccn(C(=O)c2ccc(CNC3=C(Cl)C(=O)c4ccccc4C3=O)cc2)n1`, the GI50 in experiment [1] and in experiment [2] was more than 10 µM in each case.
On to `O=C(Nc1cnc2ccccc2c1)c1ccc(CNC2=C(Cl)C(=O)c3ccccc3C2=O)cc1`, for which the GI50 in experiment [1] and in experiment [2] was more than 10 µM each time.
As to `O=C(Nc1cnccn1)c1ccc(CNC2=C(Cl)C(=O)c3ccccc3C2=O)cc1`, the GI50 was found to be 5.5 µM in experiment [1] and 9.2 µM in experiment [2].
`O=C(Nc1cccc2ncccc12)c1ccc(CNC2=C(Cl)C(=O)c3ccccc3C2=O)cc1`: the concentration for 50% growth inhibition (GI50) in experiment [1] and in experiment [2] was more than 10 µM each time.
As to `O=C(Nc1ccc2[nH]ccc2c1)c1ccc(CNC2=C(Cl)C(=O)c3ccccc3C2=O)cc1`, the 50% growth inhibitory concentration (GI50) in experiment [1] and in experiment [2] was more than 10 µM each time.
As to `O=C(Nc1ccccn1)c1ccc(CNC2=C(Cl)C(=O)c3ccccc3C2=O)cc1`, the 50% growth inhibitory concentration (GI50) in experiment [1] and in experiment [2] was more than 10 µM throughout.
Take `O=C(Nc1nccs1)c1ccc(CNC2=C(Cl)C(=O)c3ccccc3C2=O)cc1`: the GI50 in experiment [1] and in experiment [2] was more than 10 µM throughout.
On to `O=C(Nc1ccc2[nH]cnc2c1)c1ccc(CNC2=C(Cl)C(=O)c3ccccc3C2=O)cc1`, for which the GI50 in experiment [1] and in experiment [2] was more than 10 µM throughout.
Consider `O=C(Nc1ccc2ncccc2c1)c1ccc(CNC2=C(Cl)C(=O)c3ccccc3C2=O)cc1`, for which the values for the GI50 in experiment [1] and in experiment [2] were 6.8 µM and more than 10 µM, respectively.
For the compound `O=C(Nc1ccc2cn[nH]c2c1)c1ccc(CNC2=C(Cl)C(=O)c3ccccc3C2=O)cc1`, the GI50 in experiment [1] and in experiment [2] was more than 10 µM in each case.
On to `O=C(Nc1ccc2[nH]ncc2c1)c1ccc(CNC2=C(Cl)C(=O)c3ccccc3C2=O)cc1`, for which the GI50 in experiment [1] and in experiment [2] was more than 10 µM each time.
As to `O=C(Nc1cccc2[nH]ccc12)c1ccc(CNC2=C(Cl)C(=O)c3ccccc3C2=O)cc1`, the GI50 in experiment [1] and in experiment [2] was more than 10 µM throughout.
On to `O=C(Nc1ccccc1)c1ccc(CNC2=C(Cl)C(=O)c3ccccc3C2=O)cc1`, for which the 50% growth inhibitory concentration (GI50) in experiment [1] and in experiment [2] was more than 10 µM each time.
Regarding `O=C(Nc1cccnc1)c1ccc(CNC2=C(Cl)C(=O)c3ccccc3C2=O)cc1`, the 50% growth inhibitory concentration (GI50) in experiment [1] and in experiment [2] was more than 10 µM each time.
Take `O=C(Nc1nc2ccccc2[nH]1)c1ccc(CNC2=C(Cl)C(=O)c3ccccc3C2=O)cc1`: the GI50 in experiment [1] is more than 10 µM; in experiment [2] it was 8.9 µM.
With `O=C(Nc1ccc(F)cc1)c1ccc(CNC2=C(Cl)C(=O)c3ccccc3C2=O)cc1`, the concentration for 50% growth inhibition (GI50) in experiment [1] and in experiment [2] was more than 10 µM in each case.

These data come from ChEMBL document CHEMBL4130444, “1,4-Naphthoquinones as inhibitors of Itch, a HECT domain-E3 ligase, and tumor growth suppressors in multiple myeloma” (Eur J Med Chem, 2017).
